Test results taken from publication PMC11992225, “Antibacterial compounds against non-growing and intracellular bacteria” (npj Antimicrobials and Resistance, 2025).
≈ marks a conversion by molar mass, not a printed value. Like-named read-outs stand apart in the source and are kept apart here.

Tests used:
P. aeruginosa DSM1117 = test: MIC, standard microdilution assay, growing P. aeruginosa; format: cell-based, Pseudomonas aeruginosa; conditions: Pseudomonas aeruginosa, DSM1117; P. aeruginosa; CA-MHB pH 7.4; read-out: MIC (μM) CA-MHB
Description: (§1) Minimal inhibitory concentrations (MICs) were determined using a standard microdilution assay protocol. CA-MHB medium buffered with 40 mM HEPES (pH 7.4) was used to determine the MICs for UPEC, P. aeruginosa, and S. aureus. […] MICs for UPEC were also determined in LPM buffered with 30 mM MES (pH 5.5). For S. flexneri, MICs were determined in tryptic soy broth (TSB). The assay was performed in triplicates.

E. coli CFT073 (UPEC) = test: MIC, standard microdilution assay, growing UPEC; format: cell-based, Escherichia coli; conditions: E. coli; for MIC (μM) CA-MHB +PAβN: CA-MHB with 10 μg/ml efflux pump inhibitor PaβN
Description: as §1

S. aureus DSM2569 = test: MIC, standard microdilution assay, growing S. aureus; format: cell-based, Staphylococcus aureus; conditions: Staphylococcus aureus, DSM2569; S. aureus; CA-MHB pH 7.4; read-out: MIC (μM) CA-MHB
Description: as §1

[1] = tested on: intracellular S. flexneri 5a M90T in TC7 cells; test: microbe, parasite or virus in culture; format: cell-based, Shigella flexneri; conditions: for IC50: Shigella flexneri, TC7, 14 h; for Fluorescence intensity (RFU), Mean, 0.0625 x MIC / Fluorescence intensity (RFU), Mean, 0.125 x MIC / Fluorescence intensity (RFU), Mean, 0.25 x MIC / Fluorescence intensity (RFU), Mean, 0.5 x MIC / Fluorescence intensity (RFU), Mean, 2 x MIC / Fluorescence intensity (RFU), Mean, MIC: TC7 cells infected with GFP-expressing S. flexneri, 14 h treatment
Source text: Nonproliferating bacterial pathogens frequently inhabit intracellular environments, but establishing relevant infection models for high-throughput testing is challenging. Therefore, we firstly tested ability of the hit compounds to cross the eukaryotic cytoplasmic membrane barrier and inhibit growth of S. flexneri within the cytoplasm of the TC7 human colon adenocarcinoma cell line[59]. To this end, we developed a new, fluorescence-based method that enables real-time monitoring of growth of intracellular Shigella. We used S. flexneri 5a M90T strain producing the AfaE adhesin that enhances bacterial adhesion to epithelial cells and allows synchronization of invasion. The strain was further modified to constitutively express super-folder GFP (sfGFP), which enables monitoring bacterial growth by fluorescence measurement. The epithelial cells were grown to confluence and infected with bacteria at an MOI (multiplicity of infection) of 50. […] Following bacterial adhesion and invasion, the cells were incubated with varying concentrations of the hit compounds and intracellular bacterial growth was tracked by measuring green fluorescence.
The cells were split using trypsin, seeded in 96-well plates for infection, and grown to confluence, corresponding to approximately 40,000 cells per well.
A single colony of S. flexneri was inoculated into TSB supplemented with 50 μg/ml spectinomycin and incubated overnight at 37°C with agitation. The overnight culture was diluted 1:200 in fresh TSB, and the bacteria were grown at 37 °C until the OD600 reached 0.3–0.4, corresponding to approximately 2 × 10^7 CFU/ml. Bacteria were pelleted by centrifugation, washed twice with sterile PBS, and resuspended in infection solution (serum-free DMEM supplemented with 20 mM HEPES, pH 7.4). Just prior to infection, the medium was withdrawn, and the cells were washed twice with sterile PBS. The bacterial inoculum (MOI 50, 2 × 10^7 CFU/ml) was added to all wells except the no-infection control. The plates were incubated at room temperature for 15 min to allow bacterial adhesion, followed by a 1 h incubation at 37 °C with 5% CO2 to facilitate bacterial invasion.
Twofold serial dilutions of the drugs were prepared in infection solution containing 50 μg/ml gentamicin in a 96-well plate. After the invasion period, the bacterial inoculum was removed, and the serial dilutions of the drugs were added to the wells, except for the no-drug control. […] […] The experiments were performed in triplicates on separate days.
(§2) Statistical significance of the drug effects was assessed using a one-way ANOVA followed by Dunnett’s test, comparing each treatment to the drug-free control. Statistical significance of the differences in chemical characteristics between the hit compounds and the Prestwick library was assessed using a Mann–Whitney test. Statistical significance was set at P ≤ 0.05. A five-parameter logistic equation was used for asymmetric sigmoidal curve fitting and for EC50 and IC50 determination. The Venn diagram in Fig. 1F was prepared using BioVenn web application. Characteristics of the chemical and physical properties of Prestwick library compounds were obtained from Supplementary Table S1 from reference. Characteristics of the hit compounds not included in the Prestwick library were retrieved from the PubChem database.

non-growing UPEC CFT073 = test: Dilution-regrowth assay (screen, hit validation, dose-response) on stationary-phase UPEC; format: cell-based, Escherichia coli; conditions: at 0.5 µM
Description: The cultures were incubated for 24 h in non-baffled Erlenmeyer flasks at 37 °C with shaking at 200 rpm.
The high-throughput screening (HTS) procedure was based on the protocol by Hazan and colleagues[15] and conducted at the Chemical Biology Consortium Sweden (CBCS) screening facility. […] Each plate included eight wells with 200 nl of 10 mM gatifloxacin, finafloxacin, and kanamycin solutions, along with 8-wells containing 200 nl of DMSO as controls. After 24 h incubation,100 μl of the culture was dispensed into each well of the 384-well plates for screening at a final concentration of 20 μM. The plates were sealed with parafilm and incubated at 37 °C for 24 h in closed humidified boxes, with wet paper towels added to prevent evaporation. […] The plates were incubated at 37 °C for 6 h in humidified boxes, then OD600 was measured using a microplate reader.
For hit validation, bacteria were cultivated, and the dilution-regrowth assay was conducted following the same protocol used in the primary screen. Hit compounds were dispensed into 384-well plates using the Echo® (Labcyte) system, with 200, 100, or 50 nl of a 10 mM solution in DMSO added per well, yielding final screening concentrations of 20, 10, and 5 μM, respectively. OD600 values of regrowing samples were normalized to the mean OD600 of the drug-free control. The testing was conducted in two replicates.
For UPEC, dose–response analysis was conducted at the CBCS screening facility. Bacteria were cultivated, and the dilution-regrowth assay was performed according to the HTS protocol. Compounds were dispensed into 384-well plates using the Echo® (Labcyte) system, and regrowth was assessed by measuring OD600 after 6 h of incubation at 37 °C in humidified boxes. Three biological replicates were performed.
as §2

S. flexneri 5a M90T = test: MIC in tryptic soy broth, S. flexneri; format: cell-based, Shigella flexneri; conditions: Shigella flexneri, 5AM90T, read-out: MIC (μM) TSB
Description: as §1

[2] = tested on: non-growing S. aureus DSM2569; test: Dose-dependent killing analysis (CFU spot-plating) of stationary-phase S. aureus;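 note: drug concentration in µM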; format: cell-based, Staphylococcus aureus; conditions: S. aureus, vs 9,097 before treatment
Description: To determine the spectrum of activity of the compounds that were effective against non-growing UPEC, we further assessed their efficacy against the well-characterized Gram-negative and Gram-positive reference strains P. aeruginosa DSM1117 and S. aureus DSM2569, respectively. The cultures were grown and treated for 24 h in 1:4 CA-MHB (pH 7.4). […].
For survival analysis, bacteria were cultivated as described for the dose–response dilution-regrowth assay. Assays with UPEC were conducted at the CBCS screening facility using 96-well plates with a 200 μl sample volume, and compounds were dispensed using the Echo® (Labcyte) system. P. aeruginosa and S. aureus samples were treated according to the protocol used for the dilution-regrowth experiments. Treated samples were serially diluted 10-fold in PBS, and 10 μl drops were spot-plated onto rectangular LB agar plates using either a Beckman NXP robot (for UPEC) or an Integra VIAFLO96 electronic pipette (for P. aeruginosa and S. aureus). The LB agar plates were incubated overnight at 37 °C and scanned. Colonies were counted at the spots of the lowest dilution where individual colonies could be accurately distinguished. Each colony was manually marked on a separate image layer using the GNU Image Manipulation Program, and counted using NIST’s Integrated Colony Enumerator (NICE 1.4) software. The experiments were performed in three biological replicates.

[3] = Escherichia coli, pH 7.4, 1:4 diluted CA-MHB, read-out: MIC (μM) 1:4 CA-MHB
[4] = Escherichia coli, pH 7.4, CA-MHB, read-out: MIC (μM) CA-MHB

Row | SMILES | MIC (P. aeruginosa DSM1117) | MIC (μM) CA-MHB +PAβN (E. coli CFT073 (UPEC); pH 7.4) | MIC (E. coli CFT073 (UPEC); [3]) | MIC (E. coli CFT073 (UPEC); [4]) | MIC (S. aureus DSM2569) | IC50 [1] | Fluorescence intensity (RFU), Mean, 0.0625 x MIC [1] | Fluorescence intensity (RFU), Mean, 0.125 x MIC [1] | Fluorescence intensity (RFU), Mean, 0.25 x MIC [1] | Fluorescence intensity (RFU), Mean, 0.5 x MIC [1] | Fluorescence intensity (RFU), Mean, 2 x MIC [1] | Fluorescence intensity (RFU), Mean, MIC [1] | MIC (S. flexneri 5a M90T) | other results
1 | CCC(=O)O[C@@H]1CC(=O)O[C@H](C)C/C=C/C=C/[C@H](O)[C@H](C)C[C@H](CC=O)[C@H](O[C@@H]2O[C@H](C)[C@@H](O[C@H]3C[C@@](C)(O)[C@@H](OC(=O)CC)[C@H](C)O3)[C@H](N(C)C)[C@H]2O)[C@H]1OC [Midecamycin] | > 160 µM | 160 µM (≈ 130 µg/mL) | 160 µM (≈ 130 µg/mL) | > 160 µM | 2 µM (≈ 1.63 µg/mL) | 91 µM | 9401.53 RFU | 9631.81 RFU | 8761.75 RFU | 6972.36 RFU | 1708.61 RFU | 3717.14 RFU | 128 µM (≈ 104 µg/mL) | MIC (E. coli CFT073 (UPEC); pH 7.4, CA-MHB, read-out: MIC (μM) CA-MHB): >160 µM; MIC (E. coli CFT073 (UPEC); Escherichia coli, LPM pH 5.5, read-out: MIC): 160 µM (≈ 130 µg/mL); UPEC regrowth delay (non-growing UPEC CFT073): effectively delays UPEC regrowth
2 | CO[C@@H]1[C@@H](O[C@@H]2O[C@H](C)[C@@H](O[C@H]3C[C@@](C)(O)[C@@H](OC(=O)CC(C)C)[C@H](C)O3)[C@H](N(C)C)[C@H]2O)[C@@H](CC=O)C[C@@H](C)[C@@H](O)/C=C/C=C/C[C@@H](C)OC(=O)C[C@H]1OC(C)=O [Josamycin] | > 160 µM | 40 µM (≈ 33.1 µg/mL) | 80 µM (≈ 66.2 µg/mL) | 80 µM (≈ 66.2 µg/mL) | 2 µM (≈ 1.66 µg/mL) | 34.3 µM | 8835.42 RFU | 7817.11 RFU | 5830.67 RFU | 2645.69 RFU | 1478.33 RFU | 1710.25 RFU | 128 µM (≈ 106 µg/mL) | MIC:IC50 ratio ([1]; S. flexneri MIC in TSB versus intracellular IC50): > 2; average Δlog10(CFU/ml) (killing) ([2]; drug conc. 0.1): 0.030 log10(CFU/ml); average Δlog10(CFU/ml) (killing) ([2]; drug conc. 0.5): 0.110 log10(CFU/ml); average Δlog10(CFU/ml) (killing) ([2]; drug conc. 2.5): 0.195 log10(CFU/ml); average Δlog10(CFU/ml) (killing) ([2]; drug conc. 10): 0.084 log10(CFU/ml)
